Assay results published in patent US10688194B2, “Cell penetrating peptides for intracellular delivery of molecules” (AADIGEN, LLC, priority 2012, dated 2020).
Read-outs that look alike come from different tables or passages of the source. Ends that are not written are not given here.

Tests used:
SKB3 = assay: Inhibition of cancer cell proliferation by delivered small molecule drugs; assay type: cell-based
Description: (§6) Adherent HS68 fibroblasts, HeLa, PC3, MCF-7, SCK3-Her2, PBMC cell lines (from American Type Culture Collection (ATCC)) were cultured in Dulbecco's Modified Eagle's Medium supplemented with 2 mM glutamine, 1% antibiotics (streptomycin 10,000 μg/ml, penicillin, 10,000 IU/ml) and 10% (w/v) foetal calf serum (FCS), at 37° C. in a humidified atmosphere containing 5% CO2. […] 150,000 cells seeded in a 35 mm dish the day prior transfection, were grown to 60% confluence and overlaid with 200 μl of preformed complexes, incubated for 3-5 min, then 400 μl of DMEM were added. After 30 min. incubation at 37° C., 1 ml of fresh DMEM containing 16% foetal calf serum (FCS) was added in order to reach a final FCS concentration of 10%, without removing the overlay of VEPEP-3/peptide complexes. Cells were returned to the incubator for 24 hrs. […] Data reported are an average of 3 or 4 distinct experiments.

MCF7 [1] = assay: as above; assay type: cell-based; settings: Homo sapiens
Description: as §6

HIV-1-LAI = assay type: cell-based; settings: for anti viral activity: scrambled peptides; for IC50: -LAI; for fold higher antiviral activity than AZT: associated to the carrier peptide VEPEP-3
Description: (§1) Adherent HS68 fibroblasts, HeLa, PC3, MCF-7, SCK3-Her2, PBMC cell lines (from American Type Culture Collection (ATCC)) were cultured in Dulbecco's Modified Eagle's Medium supplemented with 2 mM glutamine, 1% antibiotics (streptomycin 10,000 μg/ml, penicillin, 10,000 IU/ml) and 10% (w/v) foetal calf serum (FCS), at 37° C. in a humidified atmosphere containing 5% CO2. Stock solutions of VEPEP-3/peptide particles were prepared by complexing 1 μM peptide with VEPEP-3 peptides at a molar ratio of 1/20 for 30 min at 37° C. Lower concentrations of VEPEP-3-carrier/peptide (from 500 nM to […]) were obtained by serial dilution of the stock complexes in PBS, in order to preserve the same VEPEP-3-carrier/peptide ratio. 150,000 cells seeded in a 35 mm dish the day prior transfection, were grown to 60% confluence and overlaid with 200 μl of preformed complexes, incubated for 3-5 min, then 400 μl of DMEM were added. After 30 min. incubation at 37° C., 1 ml of fresh DMEM containing 16% foetal calf serum (FCS) was added in order to reach a final FCS concentration of 10%, without removing the overlay of VEPEP-3/peptide complexes. Cells were returned to the incubator for 24 hrs. For cdk4 and CDK2 derived peptides cell proliferation was monitored after 24 and 48 hrs. For peptide-targeting integrase, HIV proliferation was analyzed on activated PBMC cells after 3 and 5 days. Data reported are an average of 3 or 4 distinct experiments.
The anti-HIV activities of the peptides (PC4D, PC6D & PC4S) and VEPEP-3/peptides were assayed according to previously described method (Roisin et al, 2004). Phytohemagglutinin-P (PHA-P)-activated peripheral blood mononuclear cells (PBMC) treated by increasing concentrations of peptide (from 100 to 0.1 nM), one hour later, were infected with hundred 50% tissue culture infectious doses (TCID50) per 100,000 cells of the HIV-1-LAI or different resistant strains (Barre-Sinoussi et al, 1983). Viruses were amplified in vitro on PHA-P-activated PBMC. Viral stock was titrated using PHA-P-activated PBMC, and 50% TCID50 were calculated using Karber's formula (Karber 1931). Samples were maintained throughout the culture, and cell supernatants were collected at day 7 post-infection and stored at −20 C. Viral replication was measured by quantifying RT activity in cell culture supernatants. In parallel, cytotoxicity of the compounds was evaluated in uninfected PHA-P-activated PBMC by colorimetric 3-(4-5 dimethylthiazol-2-yl)2,5 diphenyl tetrazolium bromite (MTT) assay on day 7 (Mossmann 1983). Experiments were performed in triplicate and repeated with another blood donor. Data analyses were performed using SoftMax® Pro 4.6 microcomputer software: percent of inhibition of RT activity or of cell viability were plotted vs. concentration and fitted with quadratic curves; 50% effective doses (ED50) and cytotoxic doses (CD50) were calculated.

[2] = tested on: Hela, MCF7, HEK-2, HS-68 and U2OS cells; assay: Cell proliferation after VEPEP-3 mediated delivery of C2/C4, several lines; assay type: cell-based; settings: delivered by VEPEP-3
Description: as §1, with “Data reported are an average of 3 or 4 distinct experiments.” left out

Hela [3] = assay type: cell-based
Description: as §1, with “Data reported are an average of 3 or 4 distinct experiments.” left out

MDA_MB cells = assay type: cell-based
MCF7 [4] = assay type: cell-based
Description: as §1
(§2) A peptide C2 or C4 concentration of 200 nM was sufficient to block proliferation of Hela, MCF7, HEK-2, HS-68 and U2OS cells.

HEK-2 = assay type: cell-based
Description: as §1, §2

Hela [5] = assay type: cell-based; remark: listed apart in the source
Description: as §1, §2

protein (GFP & Nanobody) = assay: Fluorescence titration, VEPEP-3/cargo binding: protein; settings: cargo: protein (GFP & Nanobody)
Description: (§3) Fluorescence experiments were performed on a PTI spectrofluorimeter at 25° C. in a NaCl 154 mM buffer. Intrinsic Trp-fluorescence of VEPEP-3 was excited at 290 nm and emission spectrum was recorded between 310 and 400 nm, with a spectral band-pass of 2 and 8 nm for excitation and emission, respectively. FITC-fluorescence of labelled-peptide was excited at 492 nm and emission recorded between 500 and 580 nm. For VEPEP-3/peptide interaction, 0.5 μM of FITC-labelled peptide was titrated by increasing concentrations of VEPEP-3. All measurements were corrected for the dilution and curve fitting were performed by using Grafit software (Erithacus).
(§4) VEPEP-3 peptide form stable complexes with peptides and proteins. The binding of cargos to VEPEP-3 was monitored by fluorescence spectroscopy using the […] intrinsic Trp groups of VEPEP-3 (3 to 5 Trp-residues) and extrinsic fluorescently labelled cargoes (using Cy3, Cy5 or FITC). Curve fitting reveal that VEPEP-3 strongly binds the different cargoes with dissociation constant in the nanomolar range (examples with VEPEP-3a, VEPEP-3C, and VEPEP-3g and three different cargoes are reported in FIGS. 1A-1C, all the data are reported in Table 1).

PNA (15 mer-PNA) = assay: Fluorescence titration, VEPEP-3/cargo binding: PNA; settings: cargo: 15 mer-PNA
Description: as §3
(§5) VEPEP-3 peptides also form stable particles with small aromatic molecules including Daunomycin, Paclitaxel, doxorubicin, porphyrin and charged molecules including nucleotide, nucleoside and peptide-analog of nucleic acids or fluorescent dyes (FIGS. 1A-1C). The dissociation constant for small hydrophobic molecule ranges between 0.05 to 2 μM, depending on the nature of the dyes and of the peptides.

Peptide (C4 and C2) = assay: Fluorescence titration, VEPEP-3/cargo binding: peptide
Description: as §3, §4

Cyclic peptide (PC4) = assay: Fluorescence titration, VEPEP-3/cargo binding: cyclic peptide; settings: cargo: Cyclic peptide (PC4)
Description: as §3, §4

HeLa and U2OS cells = assay: Toxicity of VEPEP-3 particles, MTT assay and cyclophilin mRNA level; settings: complexed with short peptide and PNA at ratio 1/20
Description: Toxicity of VEPEP-3/peptide or VEPEP-3/protein complexes was investigated on Hela and HS-68 cell lines. 30,000 cells seeded in 24-well plated the day prior transfection, were incubated with increasing concentrations of peptide or protein complexed with VEPEP-3 at a 20/1 molar ratio ranging from 1 to 5 μM ([…]), for 30 min prior to addition of medium to reach a final 10% concentration of FCS. Cytotoxic response was measured 12 hr or 24 hr later by monitoring the housekeeping gene cyclophilin mRNA level (Quantigen, Panomic Inc.) and by colorimetric MTT assay (Sigma, Germany), respectively. For MTT assay, cell culture medium was removed and replaced with PBS containing 2.5 mg/ml of MTT for 4 hr. Results correspond to the average of 3 separate experiments.

[6] = Fluorescence titration, VEPEP-3/cargo binding: small hydrophobic molecule; settings: cargo: Doxorubicine; for Kd: read-out: Kd, SHM
Description: as §3, §5

[7] = SKB3, drug complexed with VEPEP-3a 1/20, read-out: VEPEP-3a 1/20 IC50
[8] = SKB3, drug complexed with VEPEP-3g 1/20, read-out: VEPEP-3g 1/20 IC50
[9] = SKB3, free drug, read-out: Free drug IC50
[10] = drug complexed with VEPEP-3a 1/20, read-out: VEPEP-3a 1/20 IC50
[11] = drug complexed with VEPEP-3g 1/20, read-out: VEPEP-3g 1/20 IC50

| Compound | Binding, Protein (protein (GFP & Nanobody)) | Kd (protein (GFP & Nanobody)) [nM] | Binding, PNA (PNA (15 mer-PNA)) | Binding, peptide (Peptide (C4 and C2)) | Kd (Peptide (C4 and C2)) [nM] | Binding, Cyclic peptide (Cyclic peptide (PC4)) | toxicity (HeLa and U2OS cells; levels up to 200 nM) | toxicity (HeLa and U2OS cells; maximum concentration of 1 μM) | Binding, SHM [6] | Kd [6] [nM] | further results |
| --- | --- | --- | --- | --- | --- | --- | --- | --- | --- | --- | --- |
| COc1cccc2c1C(=O)c1c(O)c3c(c(O)c1C2=O)C[C@@](O)(C(=O)CO)C[C@@H]3O[C@H]1C[C@H](N)[C@H](O)[C@H](C)O1 [Doxo, doxorubicin] | – | – | – | – | – | – | – | – | – | – | IC50 (SKB3; [7]): 300 nM; IC50 (SKB3; SKB3, drug complexed with VEPEP-3c 1/20, read-out: VEPEP-3c 1/20 IC50): 400 nM; IC50 (SKB3; [8]): 200 nM; IC50 (SKB3; [9]): 10000 nM; fold more efficient when complexed with VEPEP-3 (SKB3; complexed versus free): 25 fold; IC50 (SKB3; text of b118, cell line not stated, values match SKB3 line of Table 4, read-out: IC50, proliferation of cancer cells): 10000 nM; IC50 (MCF7 [1]; [10]): 200 nM; IC50 (MCF7 [1]; drug complexed with VEPEP-3c 1/20, read-out: VEPEP-3c 1/20 IC50): 500 nM; IC50 (MCF7 [1]; [11]): 200 nM; IC50 (MCF7 [1]; free drug, read-out: Free drug IC50): 7000 nM |
| CC(=O)O[C@H]1C(=O)[C@@]2(C)[C@H]([C@H](OC(=O)c3ccccc3)[C@]3(O)C[C@H](OC(=O)[C@H](O)[C@@H](NC(=O)c4ccccc4)c4ccccc4)C(C)=C1C3(C)C)[C@]1(OC(C)=O)CO[C@@H]1C[C@@H]2O [Taxol, taxol] | – | – | – | – | – | – | – | – | – | – | IC50 (SKB3; [7]): 500 nM; IC50 (SKB3; [8]): 800 nM; IC50 (SKB3; [9]): 9000 nM; IC50 (MCF7 [1]; [10]): 200 nM; IC50 (MCF7 [1]; [11]): 700 nM |
| KAETWAET (HELM PEPTIDE1{[ac].K.A.E.T.W.A.E.T.[SCCN[*:1]]}$$$$V2.0; SMILES CC(=O)N[C@@H](CCCCN)C(=O)N[C@@H](C)C(=O)N[C@@H](CCC(=O)O)C(=O)N[C@H](C(=O)N[C@@H](Cc1c[nH]c2ccccc12)C(=O)N[C@@H](C)C(=O)N[C@@H](CCC(=O)O)C(=O)N[C@H](C(=O)NCCS)[C@@H](C)O)[C@@H](C)O) [PC6S] | – | – | – | – | – | – | – | – | – | – | anti viral activity (HIV-1-LAI): do not show any anti viral activity |
| KKQVLAMEHLVT [C2, KKQVLAMEHLVT] | – | – | – | – | – | – | – | – | – | – | peptide concentration sufficient to block proliferation [2]: 200 nM; IC50 (Hela [3]): 36 ± 21 nM; IC50 (MDA_MB cells): 46 ± 14 nM; IC50 (MCF7 [4]): 67 ± 15 nM; IC50 (HEK-2): 102 ± 24 nM; IC50 (Hela [5]): 37 ± 15 nM |
| KKQVRMAHLVLT [C4, KKQVRMAHLVLT] | – | – | – | – | – | – | – | – | – | – | peptide concentration sufficient to block proliferation [2]: 200 nM; IC50 (Hela [3]): 36 ± 21 nM; IC50 (MDA_MB cells): 46 ± 14 nM; IC50 (MCF7 [4]): 58 ± 6 nM; IC50 (HEK-2): 78 ± 10 nM; IC50 (Hela [5]): 35 ± 12 nM |
| KWETWWET [PC6D, KWETWWET] | – | – | – | – | – | – | – | – | – | – | IC50 (HIV-1-LAI): 0.09 ± 0.05 nM; fold higher antiviral activity than AZT (HIV-1-LAI): 15 fold |
| RWTEWEWW [PC4D, RWTEWEWW] | – | – | – | – | – | – | – | – | – | – | IC50 (HIV-1-LAI): 0.12 ± 0.05 nM; fold higher antiviral activity than AZT (HIV-1-LAI): 15 fold |
| TWFTEWFT (HELM PEPTIDE1{[ac].T.W.F.T.E.W.F.T.[SCCN[*:1]]}$$$$V2.0; SMILES CC(=O)N[C@H](C(=O)N[C@@H](Cc1c[nH]c2ccccc12)C(=O)N[C@@H](Cc1ccccc1)C(=O)N[C@H](C(=O)N[C@@H](CCC(=O)O)C(=O)N[C@@H](Cc1c[nH]c2ccccc12)C(=O)N[C@@H](Cc1ccccc1)C(=O)N[C@H](C(=O)NCCS)[C@@H](C)O)[C@@H](C)O)[C@@H](C)O) [PC4S] | – | – | – | – | – | – | – | – | – | – | anti viral activity (HIV-1-LAI): do not show any anti viral activity |
| X1KWWERWWREWPRKRK [VEPEP-3b] | Yes | 500 | Yes | yes | 10 to 20 | yes | No toxicity | mild toxicity | Yes | 500 | Kd (PNA (15 mer-PNA)): 200 nM |
| X1LWWRRWWSRWWPRWRR [VEPEP-3f] | Yes | 20 to 100 | Yes | yes | 10 to 20 | yes | No toxicity | mild toxicity | Yes | 20 | – |
| X1LWWSRWWRSWFRLWFR [VEPEP-3g] | Yes | 20 to 100 | Yes | yes | 10 to 20 | yes | No toxicity | mild toxicity | Yes | 20 | – |
| X1RWWEKWWTRWPRKRK [VEPEP-3c] | Yes | 200 | Yes | yes | 10 to 20 | yes | No toxicity | mild toxicity | Yes | 200 | Kd (PNA (15 mer-PNA)): 200 nM |
| X1RWWRLWWRSWFRLWRR [VEPEP-3e] | Yes | 20 to 100 | Yes | yes | 10 to 20 | yes | No toxicity | mild toxicity | Yes | 20 | – |
| X1RWYEKWYTEFPRRRR [VEPEP-3d] | Yes | 100 | Yes | yes | 10 to 20 | yes | No toxicity | mild toxicity | Yes | 100 | Kd (PNA (15 mer-PNA)): 100 nM |
